This note sets out measurements from US20230372498A1, “PLK1 SELECTIVE DEGRADATION INDUCING COMPOUND” (UPPTHERA, priority 2020, published 2023).

Where two headings read alike, the source gives them in different places.

This experiment has as its target T1, PLK1 (Homo sapiens, UniProt P53350).
T1 construct: endogenous in cells; host or cells: HeLa
The experiment can be described thus: PLK1 protein degradation in HeLa cells, Western blotting (PLK1/GAPDH ratio). The experiment is classed as cell-based. As to conditions: 6 hours compound incubation; for DC50: measured only if the grade of Dmax is A or B; for Dmax: thymidine block and release, 10 points three-fold from 3 μM, PLK1 to GAPDH ratio. The procedure, abridged: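 PLK1 level measured by Western blot as PLK1/GAPDH in HeLa lysates (15 μg protein per lane). Cells were blocked with 2 mM thymidine 24 h, released 4 h, and exposed 6 h to compound, 10 concentrations, 3-fold steps, top 3 μM.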
On the technique in general: Immunoblotting shows a protein as a band on a membrane.

T1 sequence (P53350 whole entry): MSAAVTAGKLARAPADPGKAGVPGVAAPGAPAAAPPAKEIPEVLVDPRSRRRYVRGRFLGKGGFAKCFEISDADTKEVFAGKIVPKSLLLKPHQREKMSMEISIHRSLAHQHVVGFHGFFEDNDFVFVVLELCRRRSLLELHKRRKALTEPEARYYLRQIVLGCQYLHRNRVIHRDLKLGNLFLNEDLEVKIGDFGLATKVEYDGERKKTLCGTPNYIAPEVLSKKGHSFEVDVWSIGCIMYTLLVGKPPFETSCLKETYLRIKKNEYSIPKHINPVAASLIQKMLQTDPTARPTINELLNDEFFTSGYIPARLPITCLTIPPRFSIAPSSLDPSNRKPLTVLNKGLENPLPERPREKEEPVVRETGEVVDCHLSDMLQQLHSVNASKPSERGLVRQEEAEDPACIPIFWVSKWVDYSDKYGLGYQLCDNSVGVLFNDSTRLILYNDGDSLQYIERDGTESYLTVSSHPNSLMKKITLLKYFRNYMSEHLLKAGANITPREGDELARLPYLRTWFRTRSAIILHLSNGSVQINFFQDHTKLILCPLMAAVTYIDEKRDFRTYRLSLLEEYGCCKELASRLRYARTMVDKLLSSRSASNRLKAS

The DC50 is the concentration giving 50% degradation. What is called Dmax is the greatest extent of degradation seen. For the molecule `COc1cc(C(=O)NC2CCN(CCOCCOCCOCCNC(=O)CNc3cccc4c3C(=O)N(C3CCC(=O)NC3=O)C4=O)CC2)c(F)cc1Nc1ncc2c(n1)N(C1CCCC1)CC(F)(F)C(=O)N2C` (centres unmarked) [Compound 30, 4-((9-cyclopentyl-7,7-difluoro-5-methyl-6-oxo-6,7,8,9-tetrahydro-5H-pyrimido[4,5-b][1,4]diazepin-2-yl)amino)-N-(1-(1-((2-(2,6-dioxopiperidin-3-yl)-1,3-dioxoisoindolin-4-yl)amino)-2-oxo-6,9,12-trioxa-3-azatetradecan-14-yl)piperidin-4-yl)-2-fluoro-5-methoxybenzamide], the DC50 was at most 50 nM. For the same molecule, the Dmax (read-out: Dmax) is at least 80%.
As for `COc1cc(C(=O)NC2CCN(Cc3cn(CCCC(=O)Nc4cccc5c4C(=O)N(C4CCC(=O)NC4=O)C5=O)nn3)CC2)c(F)cc1Nc1ncc2c(n1)N(C1CCCC1)CC(F)(F)C(=O)N2C` (centres unmarked) [Compound 46, 4-((9-cyclopentyl-7,7-difluoro-5-methyl-6-oxo-6,7,8,9-tetrahydro-5H-pyrimido[4,5-b][1,4]diazepin-2-yl)amino)-N-(1-((1-(4-((2-(2,6-dioxopiperidin-3-yl)-1,3-dioxoisoindolin-4-yl)amino)-4-oxobutyl)-1H-1,2,3-triazol-4-yl)methyl)piperidin-4-yl)-2-fluoro-5-methoxybenzamide], the maximal degradation (Dmax) (read-out: Dmax) is under 60%.
As for `COc1cc(C(=O)NC2CCN(CCOCCNC(=O)COc3cccc4c3C(=O)N(C3CCC(=O)NC3=O)C4=O)C2)c(F)cc1Nc1ncc2c(n1)N(C1CCCC1)CC(F)(F)C(=O)N2C` (centres unmarked) [Compound 127, 4-((9-cyclopentyl-7,7-difluoro-5-methyl-6-oxo-6,7,8,9-tetrahydro-5H-pyrimido[4,5-b][1,4]diazepin-2-yl)amino)-N-(1-(2-(2-(2-((2-(2,6-dioxopiperidin-3-yl)-1,3-dioxoisoindolin-4-yl)oxy)acetamido)ethoxy)ethyl)pyrrolidin-3-yl)-2-fluoro-5-methoxybenzamide], the DC50 is at most 500 nM. For the same molecule, the Dmax (read-out: Dmax) lay within 60 to 80%.
On to `COc1cc(C(=O)NC2CCN(C(=O)CCN3CCN(c4cccc5c4C(=O)N(C4CCC(=O)NC4=O)C5=O)CC3)CC2)c(F)cc1Nc1ncc2c(n1)N(C1CCCC1)CC(F)(F)C(=O)N2C` (centres unmarked) [Compound 71, 4-((9-cyclopentyl-7,7-difluoro-5-methyl-6-oxo-6,7,8,9-tetrahydro-5H-pyrimido[4,5-b][1,4]diazepin-2-yl)amino)-N-(1-(3-(4-(2-(2,6-dioxopiperidin-3-yl)-1,3-dioxoisoindolin-4-yl)piperazin-1-yl)propanoyl)piperidin-4-yl)-2-fluoro-5-methoxybenzamide], for which the DC50 is at most 50 nM. In addition, where the note is “read-out: Dmax”, the Dmax is at least 80%.
Consider `COc1cc(C(=O)NC2CCN(CCCCCNc3cccc4c3C(=O)N(C3CCC(=O)NC3=O)C4=O)C2)c(F)cc1Nc1ncc2c(n1)N(C1CCCC1)CC(F)(F)C(=O)N2C` (centres unmarked) [Example 109, 4-((9-cyclopentyl-7,7-difluoro-5-methyl-6-oxo-6,7,8,9-tetrahydro-5H-pyrimido[4,5-b][1,4]diazepin-2-yl)amino)-N-(1-(5-((2-(2,6-dioxopiperidin-3-yl)-1,3-dioxoisoindolin-4-yl)amino)pentyl)pyrrolidin-3-yl)-2-fluoro-5-methoxybenzamide], for which the DC50 was at most 500 nM. The greatest degradation seen (Dmax) (read-out: Dmax) fell in the range of 60 to 80%.
Regarding `COc1cc(C(=O)NC2CCN(CCOCCOCCOCCOCCOCC(=O)N[C@H](C(=O)N3C[C@H](O)C[C@H]3C(=O)NCc3ccc(-c4scnc4C)cc3)C(C)(C)C)CC2)c(F)cc1Nc1ncc2c(n1)N(C1CCCC1)CC(F)(F)C(=O)N2C` [Example 83], the Dmax entry was “C (C: less than 60%)”.
For `CN1C(=O)C(F)(F)CN(C2CCCC2)c2nc(Nc3ccc(C(=O)NC4CCN(C(=O)CCN5CCN(c6cccc7c6C(=O)N(C6CCC(=O)NC6=O)C7=O)CC5)CC4)cc3)ncc21` (centres unmarked) [Compound 129, 4-((9-cyclopentyl-7,7-difluoro-5-methyl-6-oxo-6,7,8,9-tetrahydro-5H-pyrimido[4,5-b][1,4]diazepin-2-yl)amino)-N-(1-(3-(4-(2-(2,6-dioxopiperidin-3-yl)-1,3-dioxoisoindolin-4-yl)piperazin-1-yl)propanoyl)piperidin-4-yl)benzamide], the DC50 is at most 50 nM. In addition, the Dmax (read-out: Dmax) was at least 80%.
In the case of `COc1cc(C(=O)NC2CCN(CCOCCOCCNc3cccc4c3C(=O)N(C3CCC(=O)NC3=O)C4=O)C2)c(F)cc1Nc1ncc2c(n1)N(C1CCCC1)CC(F)(F)C(=O)N2C` (centres unmarked) [Example 107, 4-((9-cyclopentyl-7,7-difluoro-5-methyl-6-oxo-6,7,8,9-tetrahydro-5H-pyrimido[4,5-b][1,4]diazepin-2-yl)amino)-N-(1-(2-(2-(2-((2-(2,6-dioxopiperidin-3-yl)-1,3-dioxoisoindolin-4-yl)amino)ethoxy)ethoxy)ethyl)pyrrolidin-3-yl)-2-fluoro-5-methoxybenzamide], the DC50 was at most 50 nM. In addition, the Dmax (read-out: Dmax) is at least 80%.
For `COc1cc(C(=O)N[C@H]2CCN(CC(=O)NCCCNc3cccc4c3C(=O)N(C3CCC(=O)NC3=O)C4=O)C2)c(F)cc1Nc1ncc2c(n1)N(C1CCCC1)CC(F)(F)C(=O)N2C` (some centres unmarked) [Compound 122] the same measures were at most 50 nM and at least 80%.
Consider `CN1C(=O)C(F)(F)CN(C2CCCC2)c2nc(Nc3cc(F)c(C(=O)NC4CCN(CCOCCOCCNc5cccc6c5C(=O)N(C5CCC(=O)NC5=O)C6=O)CC4)cc3OC3CCCC3)ncc21` (centres unmarked) [Example 95, 4-((9-cyclopentyl-7,7-difluoro-5-methyl-6-oxo-6,7,8,9-tetrahydro-5H-pyrimido[4,5-b][1,4]diazepin-2-yl)amino)-5-(cyclopentyloxy)-N-(1-(2-(2-(2-((2-(2,6-dioxopiperidin-3-yl)-1,3-dioxoisoindolin-4-yl)amino)ethoxy)ethoxy)ethyl)piperidin-4-yl)-2-fluorobenzamide], for which the DC50 was over 500 nM. Further, the Dmax (read-out: Dmax) was 60 to 80%.
For `CN1C(=O)C(F)(F)CN(C2CCCC2)c2nc(Nc3cc(F)c(C(=O)NC4CCN(CCOCCOCCNc5cccc6c5C(=O)N(C5CCC(=O)NC5=O)C6=O)CC4)cc3OC3CCC3)ncc21` (centres unmarked) [Example 93, 5-cyclobutoxy-4-((9-cyclopentyl-7,7-difluoro-5-methyl-6-oxo-6,7,8,9-tetrahydro-5H-pyrimido[4,5-b][1,4]diazepin-2-yl)amino)-N-(1-(2-(2-(2-((2-(2,6-dioxopiperidin-3-yl)-1,3-dioxoisoindolin-4-yl)amino)ethoxy)ethoxy)ethyl)piperidin-4-yl)-2-fluorobenzamide], in that order: at most 50 nM and at least 80%.
Consider `COc1cc(C(=O)NC2CCN(CCCC(=O)Nc3cccc4c3C(=O)N(C3CCC(=O)NC3=O)C4=O)CC2)c(F)cc1Nc1ncc2c(n1)N(C1CCCC1)CC(F)(F)C(=O)N2C` (centres unmarked) [Compound 37, 4-((9-cyclopentyl-7,7-difluoro-5-methyl-6-oxo-6,7,8,9-tetrahydro-5H-pyrimido[4,5-b][1,4]diazepin-2-yl)amino)-N-(1-(4-((2-(2,6-dioxopiperidin-3-yl)-1,3-dioxoisoindolin-4-yl)amino)-4-oxobutyl)piperidin-4-yl)-2-fluoro-5-methoxybenzamide], for which the DC50 is at most 500 nM. For the same molecule, the maximal degradation (Dmax) (read-out: Dmax) fell in the range of 60 to 80%.
For `COc1cc(C(=O)NCC2CCCCN2CCOCCNc2cccc3c2C(=O)N(C2CCC(=O)NC2=O)C3=O)c(F)cc1Nc1ncc2c(n1)N(C1CCCC1)CC(F)(F)C(=O)N2C` (centres unmarked) [Compound 126, 4-((9-cyclopentyl-7,7-difluoro-5-methyl-6-oxo-6,7,8,9-tetrahydro-5H-pyrimido[4,5-b][1,4]diazepin-2-yl)amino)-N-((1-(2-(2-((2-(2,6-dioxopiperidin-3-yl)-1,3-dioxoisoindolin-4-yl)amino)ethoxy)ethyl)piperidin-2-yl)methyl)-2-fluoro-5-methoxybenzamide] the same measures were at most 500 nM and 60 to 80%.
Take `COc1cc(C(=O)NC2CCN(CCOCCOCCOCCOCCNc3cccc4c3C(=O)N(C3CCC(=O)N(C)C3=O)C4=O)CC2)c(F)cc1Nc1ncc2c(n1)N(C1CCCC1)CC(F)(F)C(=O)N2C` (centres unmarked) [Compound 7, 4-((9-cyclopentyl-7,7-difluoro-5-methyl-6-oxo-6,7,8,9-tetrahydro-5H-pyrimido[4,5-b][1,4]diazepin-2-yl)amino)-2-fluoro-5-methoxy-N-(1-(14-((2-(1-methyl-2,6-dioxopiperidin-3-yl)-1,3-dioxoisoindolin-4-yl)amino)-3,6,9,12-tetraoxatetradecyl)piperidin-4-yl)benzamide]: the Dmax (read-out: Dmax) was under 60%.
For `COc1cc(C(=O)NC2CCN(C(=O)CCN3CCN(c4cccc5c4C(=O)N(C4CCC(=O)NC4=O)C5=O)CC3)CC2)ccc1Nc1ncc2c(n1)N(C1CCCC1)CC(F)(F)C(=O)N2C` (centres unmarked) [Compound 128, 4-((9-cyclopentyl-7,7-difluoro-5-methyl-6-oxo-6,7,8,9-tetrahydro-5H-pyrimido[4,5-b][1,4]diazepin-2-yl)amino)-N-(1-(3-(4-(2-(2,6-dioxopiperidin-3-yl)-1,3-dioxoisoindolin-4-yl)piperazin-1-yl)propanoyl)piperidin-4-yl)-3-methoxybenzamide], the DC50 was at most 50 nM. Besides, where the note is “read-out: Dmax”, the Dmax was at least 80%.
Consider `COc1cc(C(=O)NC2CCN(C(=O)COCCOCCNc3cccc4c3C(=O)N(C3CCC(=O)NC3=O)C4=O)CC2)c(F)cc1Nc1ncc2c(n1)N(C1CCCC1)CC(F)(F)C(=O)N2C` (centres unmarked) [Compound 33, 4-((9-cyclopentyl-7,7-difluoro-5-methyl-6-oxo-6,7,8,9-tetrahydro-5H-pyrimido[4,5-b][1,4]diazepin-2-yl)amino)-N-(1-(2-(2-(2-((2-(2,6-dioxopiperidin-3-yl)-1,3-dioxoisoindolin-4-yl)amino)ethoxy)ethoxy)acetyl)piperidin-4-yl)-2-fluoro-5-methoxybenzamide], for which the DC50 is at most 50 nM. For the setting “read-out: Dmax”, the Dmax is at least 80%.
